The text below walks through data of PubChem BioAssay (NCI).

Holding throughout (assay): inhibition of tumour cell growth, NCI panel, 48 h
Test [1] deals with SNB-19 CNS.
Test [2] deals with UACC-62 melanoma.
For test [3], the system named is U251 CNS.
In test [4] the test system is HCT-116 colon.
Test [5] concerns MOLT-4 leukemia.
Test [6] has as its system IGROV1 ovarian.
The subject of test [7] is SF-268 CNS.
The test system of test [8] is NCI-H522 lung.
The subject of test [9] is NCI/ADR-RES ovarian.

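1) Cells in 96-well plates. 2) Compound, 48 h, 5 concentrations. 3) Linear interpolation between surrounding doses. 4) Unreached endpoint = highest concentration. GI50 is the concentration that inhibits growth by half. Definition used: TGI = concentration required for complete inhibition of growth.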

As to `O=c1[nH]nc2ccccc2c1Cl`, the TGI in test [1] worked out at 30.5 µM; in test [2], 25.6 µM; in test [3], 29.2 µM; in test [4] it was 29.9 µM; in test [5] it was 36.8 µM; in test [6] it was 28.5 µM. The compound also came in with a TGI in [7] of 41.9 µM.
As to `CN(C)CCNC(=O)c1ccc(C(=O)NCCN(C)C)c2nc3ccccc3cc12`, the TGI was found to be 11.3 µM in test [1]; 1.93 µM in test [8]; 2.38 µM in test [2]; 7.85 µM in test [3]; 6.08 µM in test [4]; 1.56 µM in test [5]. In addition, the TGI in test [6] was > 50.2 µM; in [7] it was 6.79 µM.
As to `Nc1ccn(CCO)c(=O)n1`, the TGI in test [8], in [2], in test [3], in test [4], in [6] and in test [7] was > 100 µM in each case.
`CC(=O)Nc1ccc(/C=N\N2C(=O)c3ccccc3C2=O)cc1`: the TGI in [1], in [2], in test [4], in test [5], in test [6] and in test [7] was > 100 µM in each case.
On to `OCC(O)C(OC1OC(CO)C(O)C(O)C1O)c1nn(-c2ccccc2)c2nc3cc(Cl)c(Cl)cc3cc12` (configuration not stated), for which the TGI in test [1], in [8], in test [2], in test [3], in test [4] and in test [5] was > 100 µM throughout. The TGI in test [7] was > 100 µM.
Consider `NC(=NC1CCCCCCC1)c1ccc(N2CCN(c3ccc(C(N)=NC4CCCCCCC4)cc3)CC2)cc1`, for which the GI50 was 13.5 µM in test [1]; 12.8 µM in test [8]; 12.6 µM in [2]; 2.96 µM in test [3]; 47.8 µM in [5]; > 100 µM in [9]. For the same compound, the GI50 in test [6] was 53.1 µM; in test [7], 16.7 µM. For the same compound, the TGI in test [1] is 27.6 µM; in test [8], 52.2 µM; in test [2], 28.3 µM; in test [3], 15.3 µM; in test [5], > 100 µM; in test [9], > 100 µM. The TGI in test [6] is > 100 µM; in test [7], 42.7 µM.
With `O=c1c2cccc3cccc(c4oc5c6cccc7cccc(c(=O)c5c14)c76)c32`, the TGI in test [1] came to 18.6 µM; in test [8], 10.1 µM; in test [2] it was 17.6 µM; in [3], 17.4 µM; in [4] it was 17 µM; in test [5] it was 21.5 µM. Further, the TGI in [6] was 28.7 µM; in test [7] it was 19.6 µM.
In the case of `CCCCCCCCC(=O)N(C)C1C2CN3CCC(O2)C13` (configuration not stated), the TGI in [1], in test [8], in [2], in test [3], in test [4] and in [5] was > 100 µM in each case. For the same compound, the TGI in test [6] and in test [7] was > 100 µM throughout.
With `N#C/C(=C1\NN=C(N)C(c2ccc(Cl)cc2)=C1O)c1ccc(Cl)cc1`, the TGI in test [1], in [8], in test [2], in test [3], in [4] and in test [5] was > 100 µM each time. Also, the TGI in test [6] and in test [7] was > 100 µM in each case.
`CC(C)(O)C1CCC(Nc2ccc3ncc(-c4cccc(C(F)(F)F)c4)n3n2)CC1` (configuration not stated): the GI50 in test [1] is 4.36 µM; in [8] it was 1.73 µM; in test [2], 1.97 µM; in [3], 2.36 µM; in test [4], 3.54 µM; in [5] it was 1.8 µM. Further, the GI50 in test [9] was 2.7 µM; in test [6], 2.48 µM; in test [7], 3.79 µM. Besides, the TGI in test [1] was 21.8 µM; in [8], 5.92 µM; in test [2], 8.83 µM; in test [3] it was 11.9 µM; in [4], 18.5 µM; in [5], 7.02 µM. Besides, the TGI in [9] is 19.5 µM; in test [6] it was 11.6 µM; in test [7] it was 18.2 µM.
Take `Cc1cc(C)c2c(c1)Nc1ccccc1P2c1ccccc1` (configuration not stated): the TGI in test [1] was 83.9 µM; in [2] it was > 100 µM; in test [3], > 100 µM; in [5], > 100 µM; in test [6] it was > 100 µM; in test [7] it was > 100 µM.
Turning to `COc1ccc(C2=NN(C(=O)COc3ccc(Cl)cc3)C(O)(c3ccc(Cl)cc3)C2)cc1` (configuration not stated), the TGI in test [1], in test [8], in test [2], in test [3], in [4] and in test [5] was > 100 µM each time. Besides, the TGI in test [6] and in test [7] was > 100 µM in each case.
Turning to `CCOC(=O)C1=C(NNC(=O)Cc2ccccc2)CSC1=Nc1ccccc1`, the TGI in test [1], in test [8], in test [2], in [3], in test [4] and in test [5] was > 100 µM each time. The TGI in test [6] and in [7] was > 100 µM in each case.
As for `Fc1cccc2cc3ccc4cccc5ccc(c12)c3c45`, the TGI in test [1], in test [8], in test [2], in [3], in test [4] and in test [5] was > 100 µM throughout. In addition, the TGI in [6] and in test [7] was > 100 µM in each case.
As to `Cc1cccc(NC(=O)c2cc3cc(N=Nc4ccccc4Cl)ccc3oc2=O)c1`, the TGI in test [1] was > 100 µM; in [8], 56.8 µM; in [2] it was 42.5 µM; in test [3], > 100 µM; in [4] it was 57.3 µM; in [5] it was > 100 µM. The TGI in test [6] is > 100 µM; in test [7], 84.4 µM.
Consider `Cc1ccc(NC(=O)c2cc3ccccc3c(N=Nc3ccccc3O)c2O)c(C)c1`, for which the TGI in test [1] was determined as 6.61 µM; in test [8] it was 2.61 µM; in [4], 2.2 µM; in test [5], 10.1 µM; in test [9], 5.71 µM; in test [6], 13.5 µM. The TGI in test [7] came to 10.5 µM.
For `CC1CC2C(=O)N(c3ccccc3)C(=O)C2c2c1c1ccccc1n2Cc1ccccc1` (configuration not stated), the TGI is 92.3 µM in [8]; > 100 µM in test [2]; > 100 µM in test [4]; > 100 µM in [5]; > 100 µM in test [6]; > 100 µM in [7].
Regarding `NNC(=O)CCC(=O)Nc1cc(Cl)c(Cl)cc1Cl`, the TGI in [1], in test [8], in test [2], in test [3], in [4] and in test [5] was > 100 µM each time. The TGI in test [6] and in test [7] was > 100 µM throughout.
In the case of `C[C@H]1[C@H](C)CC[C@]2(C(=O)N3CCN(C)CC3)CC[C@]3(C)C(=CC[C@@H]4[C@@]5(C)C/C(=C/c6cccnc6)C(=O)C(C)(C)[C@@H]5CC[C@]43C)[C@H]12`, the GI50 in test [1] was 0.956 µM; in [8] it was 0.328 µM; in [2], 1.15 µM; in test [3], 0.547 µM; in test [4], 0.669 µM; in test [5] it was 1.92 µM. Further, the GI50 in test [6] is 1.52 µM; in test [7], 1.47 µM. The TGI in test [1] is 2.23 µM; in test [8], 1.3 µM; in test [2], 2.52 µM; in [3] it was 1.87 µM; in [4], 1.89 µM; in test [5], 5.75 µM. Also, the TGI in [6] worked out at 3.31 µM; in [7], 3.05 µM.
With `COCC1N=C(c2cc(OC)c(OC)c(OC)c2-c2cc3c(cc2C2OCCCO2)OCO3)O[C@H]1c1ccccc1` (some centres not stated), the TGI in test [1], in test [8], in [2], in test [3], in test [4] and in test [5] was > 100 µM in each case. Moreover, the TGI in test [6] and in [7] was > 100 µM throughout.
As for `O=C(O)CCSCCCN1C(=O)c2ccccc2C1=O`, the TGI in test [1], in test [2], in test [3], in [4], in test [5] and in test [6] was > 100 µM throughout. In test [7], the TGI was > 100 µM.
As to `O=C(/C=C/c1ccc(Cl)c(Cl)c1)c1ccc(F)cc1`, the TGI is 32.7 µM in test [1]; 18.5 µM in test [8]; 28.8 µM in test [2]; 25.7 µM in test [3]; 20.3 µM in test [4]; 38 µM in [5]. The TGI worked out at 40.2 µM in test [6] and 56.3 µM in test [7].
In the case of `COC(=O)C1C2C=CC(C2)C1(C(=O)OC)S(=O)CC12CCC(CC1O)C2(C)C` (configuration not stated), the TGI in test [1], in [8], in [2], in test [3], in [4] and in [5] was > 100 µM throughout. Besides, the TGI in [6] and in test [7] was > 100 µM throughout.
In the case of `COc1ccc(C(Cc2cc(OC)c(OC)c(OC)c2)C(=O)O)cc1` (configuration not stated), the TGI in test [1], in test [2], in test [3], in [4], in test [6] and in test [7] was > 100 µM in each case.
Consider `CS(=O)(=O)OCCn1cnc2nc(NC(=O)c3ccccc3)[nH]c(=O)c21`, for which the TGI in test [1], in test [8], in test [2], in [3], in test [4] and in [6] was > 100 µM in each case. In addition, the TGI in test [7] is > 100 µM.
For `O=C1C=C[C@@]23C[C@@H](Nc4c(O)c5c6c(c42)=NCCC=6C=N5)SC3=C1`, the TGI was 30.6 µM in test [1]; 3.13 µM in test [8]; 3.31 µM in [2]; 7.92 µM in [3]; 4.03 µM in test [4]; 10.1 µM in test [9]. Further, the TGI is 4.35 µM in test [6] and 10.1 µM in [7]. Also, the GI50 in [2] was 1.64 µM; in test [3], 2.72 µM; in [9] it was 2.88 µM; in test [6] it was 2.01 µM; in test [7] it was 3.04 µM.
On to `Nc1c(Br)c(=O)[nH]c(=O)n1COCCO`, for which the TGI in test [1], in test [8], in test [2], in test [3], in test [4] and in test [5] was > 100 µM each time. Also, the TGI in [6] and in [7] was > 100 µM each time.
As to `Cc1ccc(S(=O)(=O)NNC(=O)c2sc(-c3nc(C)c(C(=O)NNS(=O)(=O)c4ccc(C)cc4)s3)nc2C)cc1`, the TGI in test [1], in test [2], in test [3], in [4], in test [5] and in test [6] was > 100 µM each time. Further, in test [7], the TGI was > 100 µM.
Take `CC(/C(=N/NC(=O)C(N)=O)c1c(Cl)ccc(Cl)c1O)C1(O)C(=O)Nc2ccccc21` (configuration not stated): the TGI is > 100 µM in [1]; 44.6 µM in test [8]; > 100 µM in [2]; > 100 µM in test [3]; > 100 µM in test [4]; > 100 µM in [6]. Moreover, the TGI in test [7] is > 100 µM.
As to `CC1CC(c2cccc3c2OCO3)=Nc2ccccc2S1` (configuration not stated), the TGI in test [1], in [8], in test [2], in test [5], in test [6] and in [7] was > 100 µM throughout.
